Measurements from ChEMBL document CHEMBL2040720, “Potent CXCR4 antagonists containing amidine type Peptide bond isosteres” (ACS Med Chem Lett, 2011).
pEC50, pIC50: −log10 of the molar value. Active and inactive are the calls of the source. The calls are words filed in the database; no cut-off is given here.

What was measured:
[1] = molecular target: Atypical chemokine receptor 3 (Homo sapiens) (UniProt P25106); assay: Inhibition of CXCR7 interaction with SDF1alpha
[2] = system: Human immunodeficiency virus 1; assay: Antiviral activity against Human immunodeficiency virus 1 NL4.3 infected in human HeLa cells assessed as inhibition of viral replication after 48 hrs by MAGI assay; format: functional, organism-based; conditions: Human immunodeficiency virus 1, NL4.3, HeLa
[3] = system: Human immunodeficiency virus 1; assay: Antiviral activity against Human immunodeficiency virus 1 3B infected in human HeLa cells assessed as inhibition of viral replication after 48 hrs by MAGI assay; format: functional, organism-based
[4] = system: Human immunodeficiency virus 1; assay: Antiviral activity against CCR5-tropic Human immunodeficiency virus 1 Ba-L infected in human HeLa cells assessed as inhibition of viral replication at 10 uM after 48 hrs by MAGI assay; format: functional, organism-based
[5] = molecular target: C-X-C chemokine receptor type 4 (Homo sapiens, UniProt P61073); assay: Displacement of [125I]-SDF-1alpha from CXCR4 receptor expressed in HEK293 cells after 1 hr by scintillation counting; format: cell-based
Chain of C-X-C chemokine receptor type 4 (P61073 whole entry): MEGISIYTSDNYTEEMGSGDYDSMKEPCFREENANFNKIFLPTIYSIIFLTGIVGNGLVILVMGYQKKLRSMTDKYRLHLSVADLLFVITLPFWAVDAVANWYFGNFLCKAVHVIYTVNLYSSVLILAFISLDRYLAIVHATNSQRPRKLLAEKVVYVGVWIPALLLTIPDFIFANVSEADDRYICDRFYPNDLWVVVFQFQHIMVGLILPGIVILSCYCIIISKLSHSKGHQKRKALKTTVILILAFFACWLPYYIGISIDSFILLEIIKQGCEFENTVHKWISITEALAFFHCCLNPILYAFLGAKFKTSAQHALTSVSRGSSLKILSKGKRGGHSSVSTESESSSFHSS

[6] = system: HeLa; assay: Cytotoxicity against human HeLa cells at 10 uM by MAGI assay; format: cell-based

Chain of Atypical chemokine receptor 3 (Homo sapiens) (P25106 whole entry): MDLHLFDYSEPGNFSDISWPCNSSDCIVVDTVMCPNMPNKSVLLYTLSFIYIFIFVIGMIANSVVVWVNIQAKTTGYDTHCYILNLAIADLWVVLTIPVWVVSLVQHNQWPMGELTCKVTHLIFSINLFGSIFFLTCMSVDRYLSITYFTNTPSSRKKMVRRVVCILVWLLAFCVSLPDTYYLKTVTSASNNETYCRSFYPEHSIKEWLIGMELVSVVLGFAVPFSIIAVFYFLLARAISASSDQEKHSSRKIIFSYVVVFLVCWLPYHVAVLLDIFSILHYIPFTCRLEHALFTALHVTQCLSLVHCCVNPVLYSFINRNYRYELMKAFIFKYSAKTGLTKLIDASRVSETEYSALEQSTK

| Structure (SMILES) | inhibition [1] | pEC50 [2] | pEC50 [3] | Activity [4] | pIC50 [5] | Activity [6] |
| --- | --- | --- | --- | --- | --- | --- |
| N=C(N)NCCC[C@@H]1NC(=N)[C@@H](Cc2ccc(O)cc2)NC(=O)CNC(=O)[C@H](Cc2ccc3ccccc3c2)NC(=O)[C@H](CCCNC(=N)N)NC1=O | inactive | 6.52 | 6.59 | inactive |  |  |
| NC(N)=NCCC[C@@H]1NC(=O)[C@H](CCCN=C(N)N)NC(=O)[C@@H](Cc2ccc(O)cc2)N=C(N)CNC(=O)[C@H](Cc2ccc3ccccc3c2)NC1=O |  |  |  |  | 8.03 | Non-toxic |
| N=C(N)NCCC[C@@H]1NC(=O)[C@@H](Cc2ccc(O)cc2)NC(=O)CNC(=O)[C@H](Cc2ccc3ccccc3c2)NC(=O)[C@H](CCCNC(=N)N)NC1=N | inactive | 8.72 | 8.92 | inactive |  |  |
| N=C(N)NCCC[C@@H]1NC(=O)[C@H](CCCNC(=N)N)NC(=O)[C@@H](Cc2ccc(O)cc2)NC(=O)CNC(=N)[C@H](Cc2ccc3ccccc3c2)NC1=O | inactive | 8.85 | 9.00 | inactive | 8.38 | Non-toxic |
| NC(N)=NCCC[C@@H]1N=C(N)[C@@H](Cc2ccc(O)cc2)NC(=O)CNC(=O)[C@H](Cc2ccc3ccccc3c2)NC(=O)[C@H](CCCN=C(N)N)NC1=O |  |  |  |  | 6.17 | Non-toxic |
| N=C(N)NCCC[C@@H]1NC(=O)[C@H](CCCNC(=N)N)NC(=O)[C@@H](Cc2ccc(O)cc2)NC(=N)CNC(=O)[C@H](Cc2ccc3ccccc3c2)NC1=O | inactive | 8.89 | 9.21 | inactive |  |  |
| N=C(N)NCCC[C@@H]1NC(=N)[C@H](Cc2ccc(O)cc2)NC(=O)CNC(=O)[C@H](Cc2ccc3ccccc3c2)NC(=O)[C@H](CCCNC(=N)N)NC1=O | inactive | 6.61 | 6.62 | inactive |  |  |
| CN1C(=O)[C@@H](Cc2ccc(O)cc2)NC(=O)CNC(=O)[C@H](Cc2ccc3ccccc3c2)NC(=O)[C@H](CCCN=C(N)N)NC(=O)[C@H]1CCCN=C(N)N |  |  |  |  | 7.43 |  |
| N=C(N)NCCC[C@@H]1NC(=O)[C@H](CCCNC(=N)N)NC(=O)[C@@H](Cc2ccc(O)cc2)NC(=O)CNC(=O)[C@H](Cc2ccc3ccccc3c2)NC1=O |  | 7.68 | 7.68 | inactive |  |  |
| NC(N)=NCCC[C@@H]1N=C(N)[C@H](CCCN=C(N)N)NC(=O)[C@@H](Cc2ccc(O)cc2)NC(=O)CNC(=O)[C@H](Cc2ccc3ccccc3c2)NC1=O |  |  |  |  | 7.80 | Non-toxic |
| N=C(N)NCCC[C@@H]1NC(=O)[C@H](CCCNC(=N)N)NC(=O)[C@@H](Cc2ccc(O)cc2)NC(=O)CNC(=O)[C@H](Cc2ccc3ccccc3c2)NC1=N | inactive | 8.36 | 8.20 | inactive |  |  |
| NC(N)=NCCC[C@@H]1N=C(N)[C@H](Cc2ccc(O)cc2)NC(=O)CNC(=O)[C@H](Cc2ccc3ccccc3c2)NC(=O)[C@H](CCCN=C(N)N)NC1=O |  |  |  |  | 6.48 | Non-toxic |
| CN1C(=O)[C@@H](Cc2ccc(O)cc2)NC(=O)CNC(=O)[C@H](Cc2ccc3ccccc3c2)NC(=O)[C@H](CCCNC(=N)N)NC(=O)[C@H]1CCCNC(=N)N |  | 8.12 | 8.12 | inactive |  |  |
| N=C(N)NCCC[C@@H]1NC(=O)[C@H](CCCNC(=N)N)NC(=O)[C@@H](Cc2ccc(O)cc2)NC(=O)CNC(=N)[C@@H](Cc2ccc3ccccc3c2)NC1=O | inactive | 8.66 | 8.70 | inactive |  |  |
| NC(N)=NCCC[C@@H]1NC(=O)[C@@H](Cc2ccc(O)cc2)NC(=O)CNC(=O)[C@H](Cc2ccc3ccccc3c2)N=C(N)[C@H](CCCN=C(N)N)NC1=O |  |  |  |  | 7.96 | Non-toxic |
| NC(N)=NCCC[C@@H]1NC(=O)[C@H](CCCN=C(N)N)NC(=O)[C@@H](Cc2ccc(O)cc2)NC(=O)CN=C(N)[C@@H](Cc2ccc3ccccc3c2)NC1=O |  |  |  |  | 8.31 | Non-toxic |
